Toxic doses and inconclusive results are not listed. Cut-off read from the data, not from the text of the source: active = T/C of 150% or more; inactive = T/C below 125%.
Test system: L1210 leukemia ip in BDF1 mice, survival T/C
Assay: NCI In Vivo Anticancer Drug Screen. Data for tumor model L1210 Leukemia (intraperitoneal) in B6D2F1 (BDF1) mice
Settings: endpoint: mean survival time, higher = longer survival
In short: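 Value reflects the ratio of survival in compound-treated mice to survival in vehicle-treated controls, with both groups carrying the same transplanted tumor.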

[1] = dose: 100.0 mg/kg/injection, schedule: Q01DX009 (ip), vehicle: saline
[2] = dose: 200.0 mg/kg/injection, schedule: Q01DX009 (ip), vehicle: saline
[3] = dose: 100.0 mg/kg/injection, schedule: Q01DX001 (ip), vehicle: saline
[4] = dose: 400.0 mg/kg/injection, schedule: Q01DX009 (ip), vehicle: saline
[5] = dose: 100.0 mg/kg/injection, schedule: Q04DX002 (ip), vehicle: Klucel (hydroxypropylcellulose) (HPC)
[6] = dose: 200.0 mg/kg/injection, schedule: Q04DX002 (ip), vehicle: Klucel (hydroxypropylcellulose) (HPC)
[7] = dose: 400.0 mg/kg/injection, schedule: Q04DX002 (ip), vehicle: Klucel (hydroxypropylcellulose) (HPC)
[8] = dose: 100.0 mg/kg/injection, schedule: Q01DX009 (ip), vehicle: Klucel (hydroxypropylcellulose) (HPC)
[9] = dose: 400.0 mg/kg/injection, schedule: Q01DX009 (ip), vehicle: Klucel (hydroxypropylcellulose) (HPC)
[10] = dose: 100.0 mg/kg/injection, schedule: Q01DX001 (ip), vehicle: Klucel (hydroxypropylcellulose) (HPC)
[11] = dose: 200.0 mg/kg/injection, schedule: Q01DX001 (ip), vehicle: Klucel (hydroxypropylcellulose) (HPC)
[12] = dose: 400.0 mg/kg/injection, schedule: Q01DX001 (ip), vehicle: Klucel (hydroxypropylcellulose) (HPC)
[13] = dose: 100.0 mg/kg/injection, schedule: Q04DX003 (ip), vehicle: Klucel (hydroxypropylcellulose) (HPC)
[14] = dose: 200.0 mg/kg/injection, schedule: Q04DX003 (ip), vehicle: Klucel (hydroxypropylcellulose) (HPC)
[15] = dose: 400.0 mg/kg/injection, schedule: Q04DX003 (ip), vehicle: Klucel (hydroxypropylcellulose) (HPC)
[16] = dose: 100.0 mg/kg/injection, schedule: Q04DX003 (ip), vehicle: saline with Tween-80
[17] = dose: 200.0 mg/kg/injection, schedule: Q04DX003 (ip), vehicle: saline with Tween-80
[18] = dose: 400.0 mg/kg/injection, schedule: Q04DX003 (ip), vehicle: saline with Tween-80

Measured: T/C

CCC(=O)ONO
inactive: dose: 50.0 mg/kg/injection, schedule: Q01DX009 (ip), vehicle: saline 94 % of control | [1] 102 % of control | [2] 94 % of control

O=C(O)C(=C/c1ccccc1)/C(=C\c1ccccc1)C(=O)O
inactive: [3] 103 % of control | [1] 89 % of control | dose: 200.0 mg/kg/injection, schedule: Q01DX001 (ip), vehicle: saline 105 % of control | [2] 93 % of control | dose: 400.0 mg/kg/injection, schedule: Q01DX001 (ip), vehicle: saline 97 % of control | [4] 90 % of control

Nc1cnccc1Nc1ccc(-c2ccccc2)cc1
inactive: dose: 100.0 mg/kg/injection, schedule: Q01DX009 (ip), vehicle: saline with Tween-80 92 % of control

Cc1cccc(C2=N/C(=C\c3cccc([N+](=O)[O-])c3)C(=O)O2)c1
inactive: [5] 92 % of control | [6] 92 % of control | [7] 100 % of control

CC(C)C1CCC(C)(Cl)C2CCC(C)(Cl)CC12 (centres undefined)
inactive: [1] 96 % of control | [2] 91 % of control | [4] 89 % of control

CC/C(=N\N=C(/CC)c1ccccc1)c1ccccc1
inactive: dose: 25.0 mg/kg/injection, schedule: Q01DX009 (ip), vehicle: Klucel (hydroxypropylcellulose) (HPC) 98 % of control | dose: 50.0 mg/kg/injection, schedule: Q01DX009 (ip), vehicle: Klucel (hydroxypropylcellulose) (HPC) 101 % of control | [8] 98 % of control | [5] 96 % of control | [6] 107 % of control | [9] 86 % of control | [7] 91 % of control

Cc1cc(NCCN(C(C)C)C(C)C)nc(/N=C(\N)Nc2ccc(Cl)c(C(F)(F)F)c2)n1
inactive: dose: 1.25 mg/kg/injection, schedule: Q01DX009 (ip), vehicle: Klucel (hydroxypropylcellulose) (HPC) 109 % of control | dose: 2.5 mg/kg/injection, schedule: Q01DX009 (ip), vehicle: Klucel (hydroxypropylcellulose) (HPC) 104 % of control | dose: 5.0 mg/kg/injection, schedule: Q01DX009 (ip), vehicle: Klucel (hydroxypropylcellulose) (HPC) 107 % of control | dose: 9.37 mg/kg/injection, schedule: Q01DX009 (ip), vehicle: Klucel (hydroxypropylcellulose) (HPC) 98 % of control | dose: 10.0 mg/kg/injection, schedule: Q01DX009 (ip), vehicle: Klucel (hydroxypropylcellulose) (HPC) 102 % of control | dose: 18.75 mg/kg/injection, schedule: Q01DX009 (ip), vehicle: Klucel (hydroxypropylcellulose) (HPC) 96 % of control | dose: 20.0 mg/kg/injection, schedule: Q01DX009 (ip), vehicle: Klucel (hydroxypropylcellulose) (HPC) 98 % of control | dose: 75.0 mg/kg/injection, schedule: Q01DX001 (ip), vehicle: other 103 % of control | dose: 75.0 mg/kg/injection, schedule: Q04DX003 (ip), vehicle: Klucel (hydroxypropylcellulose) (HPC) 100 % of control | dose: 150.0 mg/kg/injection, schedule: Q01DX001 (ip), vehicle: other 98 % of control | dose: 150.0 mg/kg/injection, schedule: Q04DX003 (ip), vehicle: Klucel (hydroxypropylcellulose) (HPC) 100 % of control | dose: 300.0 mg/kg/injection, schedule: Q01DX001 (ip), vehicle: other 110 % of control | dose: 300.0 mg/kg/injection, schedule: Q04DX003 (ip), vehicle: Klucel (hydroxypropylcellulose) (HPC) 105 % of control

CC1=CC2(C)Cc3cc(C)cc(C)c3S(=O)(=O)C2C(C(=O)O)=C1 (centres undefined)
inactive: dose: 50.0 mg/kg/injection, schedule: Q01DX001 (ip), vehicle: Klucel (hydroxypropylcellulose) (HPC) 102 % of control | [10] 101 % of control | [11] 98 % of control | [12] 96 % of control

C=CCc1ccc(OC(=O)Nc2ccc(S(=O)(=O)N3CCCCC3)cc2)c(OC)c1
inactive: dose: 12.5 mg/kg/injection, schedule: Q01DX001 (ip), vehicle: other 98 % of control | dose: 25.0 mg/kg/injection, schedule: Q01DX001 (ip), vehicle: other 90 % of control | dose: 50.0 mg/kg/injection, schedule: Q01DX001 (ip), vehicle: other 90 % of control

CCCCCC#CC(=O)OCCCC
inactive: dose: 100.0 mg/kg/injection, schedule: Q04DX002 (ip), vehicle: saline with Tween-80 102 % of control | dose: 200.0 mg/kg/injection, schedule: Q04DX002 (ip), vehicle: saline with Tween-80 94 % of control | dose: 400.0 mg/kg/injection, schedule: Q04DX002 (ip), vehicle: saline with Tween-80 108 % of control

C=C(Cl)CN(C)CC(=C)Cl
inactive: [3] 102 % of control

NC(=S)N1CCCC1
inactive: [13] 93 % of control | [14] 96 % of control | [15] 93 % of control

Cc1cc2cc3ccc(Cl)nn3c2n[n+]1[O-]
inactive: dose: 62.5 mg/kg/injection, schedule: Q04DX002 (ip), vehicle: Klucel (hydroxypropylcellulose) (HPC) 100 % of control | dose: 125.0 mg/kg/injection, schedule: Q04DX002 (ip), vehicle: Klucel (hydroxypropylcellulose) (HPC) 122 % of control

OCc1ccn2c1C(O)CC2 (centres undefined)
inactive: dose: 29.0 mg/kg/injection, schedule: Q01DX009 (ip), vehicle: saline 100 % of control | dose: 45.0 mg/kg/injection, schedule: Q01DX009 (ip), vehicle: saline 115 % of control | [16] 108 % of control | dose: 150.0 mg/kg/injection, schedule: Q01DX009 (ip), vehicle: saline 111 % of control | [17] 117 % of control | [18] 97 % of control

Cc1nc(N)[nH]c(=O)c1CCc1ccccc1
inactive: [13] 100 % of control | [14] 94 % of control | [15] 100 % of control

Cc1ccc(NC(=O)c2cccc(C(=O)Nc3ccc(C)c(Cl)c3)c2)cc1Cl
inactive: [8] 91 % of control | [13] 95 % of control | dose: 200.0 mg/kg/injection, schedule: Q01DX009 (ip), vehicle: Klucel (hydroxypropylcellulose) (HPC) 97 % of control | [14] 96 % of control | [9] 92 % of control | [15] 106 % of control

CC1CC=C(C2CC(C)CC(N(C)C)C2=N)CC1 (centres undefined)
inactive: dose: 100.0 mg/kg/injection, schedule: Q01DX009 (sc), vehicle: olive oil, sesame oil, peanut oil 101 % of control | dose: 100.0 mg/kg/injection, schedule: Q04DX003 (sc), vehicle: olive oil, sesame oil, peanut oil 108 % of control | dose: 200.0 mg/kg/injection, schedule: Q01DX009 (sc), vehicle: olive oil, sesame oil, peanut oil 92 % of control | dose: 200.0 mg/kg/injection, schedule: Q04DX003 (sc), vehicle: olive oil, sesame oil, peanut oil 103 % of control | dose: 400.0 mg/kg/injection, schedule: Q04DX003 (sc), vehicle: olive oil, sesame oil, peanut oil 106 % of control

Cc1cc(C)n(/N=C/c2ccc(/C=N/n3c(C)cc(C)c(C#N)c3=O)cc2)c(=O)c1C#N
inactive: [10] 91 % of control | [13] 92 % of control | [11] 87 % of control | [14] 87 % of control | [12] 94 % of control | [15] 90 % of control

CCOC(=O)c1ccc2c(c1)nc1c3cccc4cccc(c(=O)n21)c43
inactive: [16] 86 % of control | [17] 92 % of control | [18] 98 % of control

O=C1/C(=C\c2ccccc2)Sc2cc[nH]c21
inactive: [10] 96 % of control | [11] 105 % of control | [12] 96 % of control

Reference: PubChem BioAssay AID248 (DTP/NCI, 2004)
